Measurements published in the supplement of paper PMC13380429.

Columns and labels:
[1] = test system: A549-ACE2 infected with SARS-CoV-2; assay: SARS-CoV-2 infection rate relative to DMSO; higher = more infection; details: 24 h
A549-ACE2 [2] = assay: drug-induced phospholipidosis relative to tamoxifen; higher = more phospholipidosis
Caco-2 [3] = assay: drug sensitivity score (DSS) for viability; higher = more toxic; extreme values may be limits of the assay; details: 72 h
U2OS [4] = assay: as above; details: 72 h
HepG2 [5] = assay: as above; details: 72 h
Calu-3 [6] = assay: as above; details: 72 h
Vero E6 [7] = assay: as above; details: 72 h
[8] = test system: A549-ACE2 infected with SARS-CoV-2; assay: cell count relative to DMSO; higher = less toxic; details: 24 h
[9] = test system: A549-ACE2 infected with SARS-CoV-2; assay: morphology score (similarity to uninfected cells); higher = more like uninfected cells; details: 24 h
Caco-2 [10] = assay: relative viability EC50 (midpoint between 100% and the lowest measured viability); higher = less toxic; details: 72 h
U2OS [11] = assay: as above; details: 72 h
Calu-3 [12] = assay: as above; details: 72 h
Vero E6 [13] = assay: as above; details: 72 h
Caco-2 [14] = assay: cell viability relative to DMSO; higher = less toxic; details: 72 h
U2OS [15] = assay: as above; details: 72 h
HepG2 [16] = assay: as above; details: 72 h
Calu-3 [17] = assay: as above; details: 72 h
Vero E6 [18] = assay: as above; details: 72 h
A549-ACE2 [19] = assay: phospholipidosis EC50; higher = less potent phospholipidosis inducer
HepG2 [20] = assay: relative viability EC50 (midpoint between 100% and the lowest measured viability); higher = less toxic; details: 72 h

Cc1[nH]c(/C=C2\C(=O)Nc3ccc(S(=O)(=O)N(C)c4cccc(Cl)c4)cc32)c(C)c1C(=O)N1CCN(C)CC1
Details | SARS-CoV-2 infection rate [%] | cell count [%] | cell viability [%] | morphology score | phospholipidosis EC50 [µM]
A549-ACE2 [19], 24 h | – | – | – | – | 4.77
A549-ACE2 [19], 48 h | – | – | – | – | 3.94
Caco-2 [14], 1 nM | – | – | 96 | – | –
Caco-2 [14], 10 nM | – | – | 98.5 | – | –
Caco-2 [14], 100 nM | – | – | 99.9 | – | –
Caco-2 [14], 1000 nM | – | – | 97.5 | – | –
Caco-2 [14], 10000 nM | – | – | 85.2 | – | –
Calu-3 [17], 1 nM | – | – | 106 | – | –
Calu-3 [17], 10 nM | – | – | 93.5 | – | –
Calu-3 [17], 100 nM | – | – | 112 | – | –
Calu-3 [17], 1000 nM | – | – | 101 | – | –
Calu-3 [17], 10000 nM | – | – | 83.8 | – | –
HepG2 [16], 1 nM | – | – | 106 | – | –
HepG2 [16], 10 nM | – | – | 105 | – | –
HepG2 [16], 100 nM | – | – | 93.5 | – | –
HepG2 [16], 1000 nM | – | – | 103 | – | –
HepG2 [16], 10000 nM | – | – | 66.5 | – | –
U2OS [15], 1 nM | – | – | 104 | – | –
U2OS [15], 10 nM | – | – | 98.2 | – | –
U2OS [15], 100 nM | – | – | 106 | – | –
U2OS [15], 1000 nM | – | – | 101 | – | –
U2OS [15], 10000 nM | – | – | 91 | – | –
Vero E6 [18], 1 nM | – | – | 101 | – | –
Vero E6 [18], 10 nM | – | – | 102 | – | –
Vero E6 [18], 100 nM | – | – | 94.3 | – | –
Vero E6 [18], 1000 nM | – | – | 107 | – | –
Vero E6 [18], 10000 nM | – | – | 88.1 | – | –
[1], 0.3 µM | 89 | – | – | – | –
[1], 3 µM | 46 | – | – | – | –
[1], 10 µM | 20 | – | – | – | –
[1], 30 µM | 34 | – | – | – | –
[8], 0.3 µM | – | 94 | – | – | –
[8], 3 µM | – | 105 | – | – | –
[8], 10 µM | – | 70 | – | – | –
[8], 30 µM | – | 85 | – | – | –
[9], 0.3 µM | – | – | – | 0.29 | –
[9], 3 µM | – | – | – | 0.61 | –
[9], 10 µM | – | – | – | 0.45 | –
[9], 30 µM | – | – | – | 0.53 | –

drug-induced phospholipidosis [%], A549-ACE2 [2]
Details | 0.3 µM | 0.833333 µM | 3.33333 µM | 6.66667 µM | 10 µM | 30 µM
24 h | 22.5 | 42.3 | 133 | 230 | 269 | 324
48 h | 12.7 | 30.6 | 129 | – | 333 | 340
72 h | 9.3 | 20.7 | 128 | – | – | –

Details | drug sensitivity score | relative viability EC50 [µM]
Caco-2 [3] | 0.5 | –
Caco-2 [10] | – | > 10
Calu-3 [6] | 0.3 | –
Calu-3 [12] | – | > 10
HepG2 [5] | 1.3 | –
U2OS [4] | 0 | –
U2OS [11] | – | > 10
Vero E6 [7] | 0 | –
Vero E6 [13] | – | > 10

O=c1[nH]c2ccccc2n1C1CCN(CCCC(c2ccc(F)cc2)c2ccc(F)cc2)CC1 [pimozide]
Details | SARS-CoV-2 infection rate [%] | cell count [%] | cell viability [%] | morphology score | phospholipidosis EC50 [µM]
A549-ACE2 [19], 24 h | – | – | – | – | 4.66
A549-ACE2 [19], 48 h | – | – | – | – | 6.29
A549-ACE2 [19], 72 h | – | – | – | – | 6.67
Caco-2 [14], 1 nM | – | – | 92.2 | – | –
Caco-2 [14], 10 nM | – | – | 99.1 | – | –
Caco-2 [14], 100 nM | – | – | 98 | – | –
Caco-2 [14], 1000 nM | – | – | 94.6 | – | –
Caco-2 [14], 10000 nM | – | – | 95.7 | – | –
Calu-3 [17], 1 nM | – | – | 100 | – | –
Calu-3 [17], 10 nM | – | – | 95.5 | – | –
Calu-3 [17], 100 nM | – | – | 95.2 | – | –
Calu-3 [17], 1000 nM | – | – | 100 | – | –
Calu-3 [17], 10000 nM | – | – | 93.9 | – | –
HepG2 [16], 1 nM | – | – | 119 | – | –
HepG2 [16], 10 nM | – | – | 114 | – | –
HepG2 [16], 100 nM | – | – | 108 | – | –
HepG2 [16], 1000 nM | – | – | 85.2 | – | –
HepG2 [16], 10000 nM | – | – | 104 | – | –
U2OS [15], 1 nM | – | – | 99.4 | – | –
U2OS [15], 10 nM | – | – | 102 | – | –
U2OS [15], 100 nM | – | – | 99.5 | – | –
U2OS [15], 1000 nM | – | – | 104 | – | –
U2OS [15], 10000 nM | – | – | 94.6 | – | –
Vero E6 [18], 1 nM | – | – | 106 | – | –
Vero E6 [18], 10 nM | – | – | 88.7 | – | –
Vero E6 [18], 100 nM | – | – | 104 | – | –
Vero E6 [18], 1000 nM | – | – | 94.2 | – | –
Vero E6 [18], 10000 nM | – | – | 104 | – | –
[1], 0.3 µM | 99 | – | – | – | –
[1], 3 µM | 83 | – | – | – | –
[1], 10 µM | 20 | – | – | – | –
[1], 30 µM | 33 | – | – | – | –
[8], 0.3 µM | – | 92 | – | – | –
[8], 3 µM | – | 108 | – | – | –
[8], 10 µM | – | 113 | – | – | –
[8], 30 µM | – | 86 | – | – | –
[9], 0.3 µM | – | – | – | -0.1 | –
[9], 3 µM | – | – | – | 0.46 | –
[9], 10 µM | – | – | – | 0.79 | –
[9], 30 µM | – | – | – | 0.31 | –

drug-induced phospholipidosis [%], A549-ACE2 [2]
Details | 0.3 µM | 0.833333 µM | 3.33333 µM | 6.66667 µM | 10 µM | 30 µM
24 h | 4.09 | 5.84 | 24.5 | 59.8 | 64.4 | 78
48 h | 4.99 | 5.4 | 17.8 | 56.9 | 81 | 99.5
72 h | 6.59 | 6.94 | 22.7 | 60.3 | 85.3 | 111

Details | drug sensitivity score | relative viability EC50 [µM]
Caco-2 [3] | 0 | –
Caco-2 [10] | – | > 10
Calu-3 [6] | 0 | –
Calu-3 [12] | – | > 10
HepG2 [5] | 0 | –
HepG2 [20] | – | > 10
U2OS [4] | 0 | –
U2OS [11] | – | > 10
Vero E6 [7] | 0 | –
Vero E6 [13] | – | > 10
